Drawing on PubChem BioAssay (NCI), this text covers GI50 and TGI for one molecule.

Some test systems named below: HL-60(TB) leukemia; UACC-62 melanoma; NCI-H460 lung; ACHN renal; KM12 colon; MOLT-4 leukemia; NCI/ADR-RES ovarian; IGROV1 ovarian; UO-31 renal; A498 renal.
What all share (test): NCI-60 cell line screen, 48 h

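1) Cells in 96-well plates. 2) Compound, 48 h, 5 concentrations. 3) Linear interpolation between surrounding doses. 4) Unreached endpoint = highest concentration. The concentration for 50% growth inhibition is given as GI50. TGI marks complete inhibition of growth.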 Bounds are passed on as bounds.

As to `O=C(NCC1CCCO1)c1ccc(NC2=C(Cl)C(=O)N(Cc3ccccc3)C2=O)cc1` (stereo not given), the GI50 is 9.25 µM in the experiment with HL-60(TB) leukemia; 10.8 µM with UACC-62 melanoma; 15.5 µM in the experiment on NCI-H460 lung; 18.7 µM with ACHN renal; 17.1 µM with KM12 colon; 4.49 µM with MOLT-4 leukemia. Also, the GI50 with NCI/ADR-RES ovarian is 23.9 µM; in the experiment on IGROV1 ovarian, 2930 nM; in the experiment with UO-31 renal, 2670 nM; with A498 renal it was 22.2 µM. Also, the TGI in the experiment on HL-60(TB) leukemia was 25 µM; in the experiment on UACC-62 melanoma it was 24.3 µM; in the experiment on NCI-H460 lung, 46.5 µM; in the experiment with ACHN renal, 38.8 µM; in the experiment on KM12 colon, 35 µM; with MOLT-4 leukemia, above 100 µM. Moreover, the TGI with NCI/ADR-RES ovarian amounted to 51.4 µM; in the experiment on IGROV1 ovarian, 7.52 µM; in the experiment on UO-31 renal, 8.24 µM; in the experiment on A498 renal it was 41.9 µM.
